SMILES strings stand for the structures. “And” between values parts separate entries of the source, which are not always exact repeats. Equal entries are not always repeated.

Common to all, as to type: toxicity, cell-based
In one data set the test system is HEK-293T. The experiment in a line: Incucyte cell viability with HEK293T. The following applies: human, 10 µM, compound concentration 10 uM.
The subject of another data set is Fibroblast. The experiment in a line: Incucyte cell viability with human fibroblast. The following applies: 10 µM, compound concentration 10 uM.
Another data set has as its system U2OS. The data set can be described thus: Incucyte cell viability with U2OS. The following applies: human, 10 µM, compound concentration 10 uM.
Note: unitless GR value; below 1 slowed growth and below 0 cell loss.

For the molecule `Clc1ccccc1C(c1ccccc1)(c1ccccc1)n1cccn1`, the “Growth Rate” value in the data set with HEK-293T (0 h, replicate number 1) is 0.43; in the data set with HEK-293T (0 h, replicate number 2) it was 0.27 and 0.15; in the data set with HEK-293T (6 h, replicate number 1), 0.05; in the data set on HEK-293T (6 h, replicate number 2), 0.9; in the data set with HEK-293T (12 h, replicate number 1) it was 0.26; in the data set with HEK-293T (18 h, replicate number 1), 0.83. In addition, the “Growth Rate” value is listed as 0.89 with HEK-293T (24 h, replicate number 1); 0.64 in the data set with Fibroblast (6 h, replicate number 1); 0.39 in the data set on Fibroblast (12 h, replicate number 2); 0.46 with Fibroblast (18 h, replicate number 1); 0.54 in the data set with Fibroblast (24 h, replicate number 2); -0.86 with U2OS (0 h, replicate number 2). The “Growth Rate” value amounted to 0.24 in the data set with U2OS (6 h, replicate number 1); 0.65 with U2OS (6 h, replicate number 2); 0.78 in the data set with U2OS (12 h, replicate number 1); 0.9 with U2OS (12 h, replicate number 2); 1 with U2OS (18 h, replicate number 1); 0.94 in the data set on U2OS (18 h, replicate number 2). For the same molecule, in the data set with U2OS (24 h, replicate number 1), the “Growth Rate” value turned out to be 0.91.
Take `Cl.c1ccc2c(c1)CCC[C@H]2Nc1nc2ccccc2[nH]1`: the “Growth Rate” value stood at 0.86 in the data set on HEK-293T (0 h, replicate number 1); 0.46 with HEK-293T (0 h, replicate number 2); 0.77 in the data set with HEK-293T (6 h, replicate number 1); 0.94 in the data set with Fibroblast (0 h, replicate number 1); 0.4 in the data set on Fibroblast (0 h, replicate number 2); 0.56 with Fibroblast (12 h, replicate number 2). Besides, the “Growth Rate” value in the data set with Fibroblast (18 h, replicate number 1) turned out to be 0.44; in the data set with Fibroblast (18 h, replicate number 2) it was 0.87; in the data set with Fibroblast (24 h, replicate number 1), 0.48; with U2OS (0 h, replicate number 1), 0.01; in the data set with U2OS (6 h, replicate number 2), 0.97; with U2OS (18 h, replicate number 1) it was 0.9. For the same molecule, the “Growth Rate” value in the data set on U2OS (18 h, replicate number 2) is 0.95; in the data set on U2OS (24 h, replicate number 1), 0.98.
Turning to `COc1ccc(Cl)cc1[C@]1(F)C(=O)Nc2cc(C(F)(F)F)ccc21` [FLINDOKALNER], the “Growth Rate” value with HEK-293T (0 h, replicate number 1) is 0.73; in the data set with HEK-293T (6 h, replicate number 1) it was 0.73; with HEK-293T (6 h, replicate number 2), 0.03; with HEK-293T (12 h, replicate number 1), 0.58; in the data set on HEK-293T (12 h, replicate number 2), 0.38; with HEK-293T (18 h, replicate number 1), 0.42. Besides, the “Growth Rate” value with HEK-293T (18 h, replicate number 2) is 0.4; in the data set on HEK-293T (24 h, replicate number 1), 0.44; with HEK-293T (24 h, replicate number 2), 0.47; with Fibroblast (6 h, replicate number 1) it was -0.6; with Fibroblast (6 h, replicate number 2), -1; in the data set with Fibroblast (12 h, replicate number 1), -1. In addition, the “Growth Rate” value was determined as 0.2 in the data set on Fibroblast (12 h, replicate number 2); 0.41 in the data set with Fibroblast (18 h, replicate number 2); 0.58 in the data set with Fibroblast (24 h, replicate number 2); 0.48 with U2OS (6 h, replicate number 2); 0.57 in the data set on U2OS (12 h, replicate number 1); 0.76 in the data set with U2OS (12 h, replicate number 2). In addition, the “Growth Rate” value is 0.79 in the data set on U2OS (18 h, replicate number 1); 0.88 in the data set on U2OS (18 h, replicate number 2); 0.83 in the data set on U2OS (24 h, replicate number 1); 0.95 with U2OS (24 h, replicate number 2).
On to `CN1CCN(C(=O)c2ccc(N(C)c3ncc(C(F)(F)F)c(N[C@@H]4CCC[C@@H]4C(N)=O)n3)cc2)CC1.Cl`, for which the “Growth Rate” value is recorded as 0.56 in the data set on HEK-293T (0 h, replicate number 2); 1 with HEK-293T (6 h, replicate number 1); 0.56 in the data set on HEK-293T (6 h, replicate number 2); 0.91 in the data set with HEK-293T (12 h, replicate number 1); -0.99 in the data set with Fibroblast (6 h, replicate number 2); -0.02 with Fibroblast (12 h, replicate number 2). In addition, the “Growth Rate” value in the data set with Fibroblast (18 h, replicate number 2) is recorded as 0.35; with Fibroblast (24 h, replicate number 2) it was 0.9; in the data set with U2OS (24 h, replicate number 2), 1.
As to `Cc1cc(OCCC(C)(C)O)cc(C)c1-c1ccc(F)c2c1CC[C@H]2Oc1ccc2c(c1)OC[C@H]2CC(=O)O`, the “Growth Rate” value in the data set with HEK-293T (0 h, replicate number 1) came out at 0.74; in the data set with HEK-293T (0 h, replicate number 2), 0.8; in the data set on HEK-293T (6 h, replicate number 1) it was 0.79; with HEK-293T (12 h, replicate number 1), 0.91; with HEK-293T (12 h, replicate number 2), 0.86; in the data set with HEK-293T (18 h, replicate number 1) it was 0.98. Besides, the “Growth Rate” value is recorded as -0.99 in the data set on Fibroblast (0 h, replicate number 1); 0.77 in the data set with Fibroblast (6 h, replicate number 1); -0.01 in the data set on Fibroblast (12 h, replicate number 2); 0.57 with Fibroblast (18 h, replicate number 2); 0.67 with Fibroblast (24 h, replicate number 2); 0.95 in the data set with U2OS (0 h, replicate number 1). Besides, the “Growth Rate” value was found to be 0.51 in the data set on U2OS (6 h, replicate number 1); 0.97 in the data set with U2OS (12 h, replicate number 1); 0.87 in the data set on U2OS (12 h, replicate number 2); 0.74 with U2OS (18 h, replicate number 1); 0.88 in the data set with U2OS (18 h, replicate number 2); 0.98 in the data set with U2OS (24 h, replicate number 1). Moreover, the “Growth Rate” value in the data set with U2OS (24 h, replicate number 2) came to 0.84.
`Cc1ccccc1C1C(=O)N(C)c2cnc(Nc3ccc(S(N)(=O)=O)cc3)nc2N1C` (stereo not given): the “Growth Rate” value with HEK-293T (0 h, replicate number 1) is listed as -0.37; in the data set on HEK-293T (0 h, replicate number 2) it was -0.88; with Fibroblast (0 h, replicate number 1), -0.58; with Fibroblast (0 h, replicate number 2), -0.9; with Fibroblast (6 h, replicate number 1) it was -1; with U2OS (0 h, replicate number 1), -0.73. Besides, the “Growth Rate” value in the data set on U2OS (0 h, replicate number 2) is recorded as -0.83.
For `O=C(Nc1ccc(-n2nc(-c3cccnc3)cc2C(F)(F)F)cn1)c1ccc(-c2ccccc2)c(F)c1` [BI 2049], the “Growth Rate” value with HEK-293T (0 h, replicate number 1) is -0.8; in the data set on HEK-293T (0 h, replicate number 2) it was 0.47; in the data set with Fibroblast (12 h, replicate number 2) it was 0.85; with Fibroblast (18 h, replicate number 2), 0.98; in the data set on Fibroblast (24 h, replicate number 1), 0.99; in the data set on Fibroblast (24 h, replicate number 2) it was 0.91. Further, the “Growth Rate” value with U2OS (0 h, replicate number 2) was -0.06; with U2OS (6 h, replicate number 1), 0.83; in the data set on U2OS (6 h, replicate number 2), 0.46; in the data set on U2OS (12 h, replicate number 2), 0.84; in the data set with U2OS (18 h, replicate number 2), 0.93; in the data set with U2OS (24 h, replicate number 2), 0.97.
`N#Cc1ccc(C#CC[C@@H](C#N)NC(=O)[C@H]2CCCCN2)cc1F.O=C(O)C(F)(F)F`: the “Growth Rate” value is on record as -0.1 in the data set with HEK-293T (0 h, replicate number 2); -1 in the data set on Fibroblast (0 h, replicate number 1); 0.94 with Fibroblast (6 h, replicate number 1); 0.86 in the data set with Fibroblast (18 h, replicate number 1); 0.92 with Fibroblast (24 h, replicate number 1); 0.12 in the data set on U2OS (0 h, replicate number 2). The “Growth Rate” value in the data set with U2OS (6 h, replicate number 1) was 0.86; in the data set with U2OS (6 h, replicate number 2), 0.95; in the data set with U2OS (12 h, replicate number 2), 0.78; with U2OS (18 h, replicate number 2) it was 0.73; in the data set with U2OS (24 h, replicate number 2), 0.73.
For `Cc1[nH]nc2ccc(-c3cncc(OCC(N)Cc4c[nH]c5ccccc45)c3)cc12` (stereo not given), the “Growth Rate” value with HEK-293T (0 h, replicate number 1) was -0.53; in the data set on HEK-293T (0 h, replicate number 2), -0.56; with HEK-293T (12 h, replicate number 2), 0.41; in the data set with HEK-293T (18 h, replicate number 1), 0.65; with HEK-293T (18 h, replicate number 2) it was 0.08; in the data set on HEK-293T (24 h, replicate number 1) it was 0.19. In addition, the “Growth Rate” value in the data set on HEK-293T (24 h, replicate number 2) was -0.02; with Fibroblast (6 h, replicate number 1), -1; in the data set on Fibroblast (18 h, replicate number 2), 0.88; in the data set on Fibroblast (24 h, replicate number 2) it was 0.21; in the data set with U2OS (0 h, replicate number 2), 0.54; in the data set with U2OS (18 h, replicate number 1), 0.51. For the same molecule, the “Growth Rate” value in the data set on U2OS (24 h, replicate number 1) came to 0.09; in the data set on U2OS (24 h, replicate number 2) it was 0.13.
On to `Nc1ncnc2c1ccn2[C@@H]1O[C@H]([C@@H](O)c2ccccc2)[C@@H](O)[C@H]1O`, for which the “Growth Rate” value in the data set on HEK-293T (0 h, replicate number 2) is -0.97; in the data set with HEK-293T (6 h, replicate number 1), 0.8; with Fibroblast (6 h, replicate number 1), 0.32; in the data set with Fibroblast (6 h, replicate number 2), 0.31; in the data set on Fibroblast (12 h, replicate number 1) it was 0.69; in the data set on Fibroblast (12 h, replicate number 2) it was 0.57. In addition, the “Growth Rate” value with Fibroblast (18 h, replicate number 1) is on record as 0.97; in the data set with Fibroblast (24 h, replicate number 1), 0.81; in the data set with U2OS (12 h, replicate number 2), 1; in the data set on U2OS (18 h, replicate number 1), 0.86; in the data set on U2OS (18 h, replicate number 2), 0.91; in the data set with U2OS (24 h, replicate number 1) it was 0.8. Further, the “Growth Rate” value with U2OS (24 h, replicate number 2) came out at 0.95.
For `COc1ncc(-c2cc(-c3ncc(CN4C[C@@H](C)O[C@@H](C)C4)o3)c3cn[nH]c3c2)cc1NS(C)(=O)=O`, the “Growth Rate” value in the data set with HEK-293T (6 h, replicate number 1) was -0.44; in the data set on HEK-293T (6 h, replicate number 2), -0.64; in the data set on HEK-293T (12 h, replicate number 1) it was -0.15; in the data set on HEK-293T (12 h, replicate number 2), -0.32; in the data set with HEK-293T (18 h, replicate number 1), -0.01; in the data set on HEK-293T (18 h, replicate number 2), -0.2. The “Growth Rate” value in the data set with HEK-293T (24 h, replicate number 1) is given as 0.05; with HEK-293T (24 h, replicate number 2) it was -0.11; in the data set with Fibroblast (6 h, replicate number 1) it was -0.74; in the data set on Fibroblast (6 h, replicate number 2), -0.56; with Fibroblast (12 h, replicate number 1) it was -0.39; in the data set with Fibroblast (12 h, replicate number 2) it was -0.16. For the same molecule, the “Growth Rate” value with Fibroblast (18 h, replicate number 1) is given as -0.21; with Fibroblast (18 h, replicate number 2), 0.05; with Fibroblast (24 h, replicate number 1), -0.03; in the data set on Fibroblast (24 h, replicate number 2), 0.3; in the data set on U2OS (0 h, replicate number 2), -0.39; with U2OS (6 h, replicate number 1) it was -0.31. In addition, the “Growth Rate” value in the data set with U2OS (6 h, replicate number 2) was -0.02; in the data set on U2OS (12 h, replicate number 1), 0.56; with U2OS (12 h, replicate number 2), 0.02; with U2OS (18 h, replicate number 1) it was 0.72; in the data set on U2OS (18 h, replicate number 2), 0.21; in the data set with U2OS (24 h, replicate number 1) it was 0.82. Besides, in the data set with U2OS (24 h, replicate number 2), the “Growth Rate” value was found to be 0.36.

The record behind these values is ChEMBL document CHEMBL5303304, “EUbOPEN Chemogenomics Library - IncuCyte” (2023).
